Assay results published in patent US9102636B2, “Analgesic compounds, compositions, and uses thereof” (Galleon Pharmaceuticals, Inc., priority 2010, dated 2015).
Several values for one entry are separate records, joined by “and”; a condition that tells them apart may be missing. Equal values may be shown once. Entries after “also recorded” stand apart in the source; their conditions may differ.

Columns and labels:
[1] = L-012 assay: inhibition of SIN-1 generated peroxynitrite induced luminescence/fluorescence of L-012; assay type: biochemical; conditions: 15 minute time point; average of three plates
Method: Luminol like compound “L-012” is a chemilumescent probe that is activated by the presence of a ROS and/or RNS such as peroxynitrite. In this assay L-012 was oxidized by the addition of 3-Morpholino-sydnonimine (“SIN-1”), a known peroxynitrite generator. The emitted fluorescence was directly proportional to the concentration of SIN-1. The compounds of the invention were then assessed for their ability to scavenge peroxynitrite by blocking the increase of peroxynitrite induced fluorescence. Concentrations of compound producing 50% inhibition of the fluorescence signal (IC50 values) were calculated by testing the compounds of the invention at various concentrations and averaging the IC50 of three plates.
The following solutions were added to white polystyrene, non-sterile 96-well plate (Costar #3912): 196 μL of 50 μM L-012; 2 μL of the test compound; and 24 μL of 500 mM SIN-1. Fresh stock of 50 μM L-012 in PBS pH 7.4 was made for each 96 well plate that was analyzed. The plates were read in a FlexStation3 (Molecular Devices) using the luminescent mode at 37° C. for 30 min, with a measurement every 30 seconds and an integration time of 100 msec.
Luminescence signal was recorded by the FlexStation3 kinetically at 37° C. for 30 minutes, with a measurement every 30 seconds and an integration time of 100 msec. The data in rows A and H were dropped from each plate to exclude the possibility of an ‘edge effect’. Thus, each test compound had 3 replicates per plate.

[2] = test system: hyperalgesia following incisional surgery; experiment: Incisional hyperalgesia, dosing at conclusion of surgery; assay type: in vivo; conditions: rat; IV at conclusion of surgical incision; FIG. 9
[3] = test system: FCA induced thermal hyperalgesia; experiment: FCA induced thermal hyperalgesia (Hargreaves); assay type: in vivo, rat; conditions: for Paw withdrawal latency: individual rats, FIG. 18A
Method: (§1) Compound 2 was evaluated in the rat Freund's complete adjuvant (FCA) model of inflammatory pain. The rat Freund's complete adjuvant (FCA) intraplantar model of inflammatory pain produces behaviors similar to those observed in patients and has been widely used to assess novel pharmacological treatments (Lam et al., 2008, J Ethnopharmacol. 120:44-50). The positive control was celecoxib (TRC, Montreal), and the negative control was vehicle (0.5% methyl cellulose, in phosphate buffered saline). […] The Hargreaves apparatus was obtained from Ugo Basile, Italy. The Freund's complete adjuvant was obtained from Sigma, St. Louis, and the electronic von frey was obtained from Stoelting, Ill. For this assay, paw withdrawal latency to a thermal stimulus was assessed using a radiant heat source (Ugo Basile, Italy) aimed at the plantar surface of the left hind paw (Hargreaves test; […] Paw withdrawal thresholds to a non-noxious tactile stimulus was assessed using an electronic von Frey apparatus that presented an increasing mechanical force to the plantar surface of the hind paw. Paw volume was measured by displacement of water and assuming a tissue density equal to that of water. […] Celecoxib (30 mg/kg p.o.) served as the positive control. […] After induction of anesthesia, the injection site was prepared in a sterile manner and 100 μl of a 50% suspension of FCA injected. After injection, animals were weighed and allowed to recover before being returned to their home cages. Statistical significance was determined on untransformed data using a two-way analysis of variance (Graphpad Prism, NC). Significant main effects were analyzed further by subsequent Bonferronni post-hoc test. The level of significance was set at p<0.05. Data are shown as mean±S.E.M. (with an asterisk to denote significance as compared to vehicle treated controls).

FCA induced edema = FCA induced edema (paw volume); assay type: in vivo, rat
Method: as §1

[4] = test system: Carrageenan-induced thermal hyperalgesia; experiment: Carrageenan-induced thermal hyperalgesia (Hargreaves); assay type: in vivo, rat; conditions: for Paw withdrawal latency: Pre-Cg, individual rats, FIG. 21A
Method: The effect of Compound 2 in the rat carrageenan model of acute inflammatory pain was evaluated. The intraplantar carrageenan model of acute inflammatory pain in the rat results in behaviors similar to that observed in patients and has been widely used to assess novel pharmacological treatments (Whiteside et al., 2005, J. Pharmacol. Exp. Ther. 314:1234-1240). The objective of this study was to evaluate the ability of Compound 2 to reverse or prevent development of thermal hyperalgesia and edema in the rat carrageenan model of acute inflammatory pain. The positive control was indomethacin (Sigma, St. Louis), and the negative control was vehicle (0.5% methyl cellulose). […] The Hargreaves apparatus was obtained from Ugo Basile, Italy, and the lamba-carrageenan was obtained from Sigma, St. Louis. For this assay, paw withdrawal latency to a thermal stimulus was assessed using a radiant heat source (Ugo Basile, Italy) aimed at the plantar surface of the left hind paw (Hargreaves test). […] Paw volume was measured by displacement of water and assuming a tissue density equal to that of water. Baseline latencies were taken prior to carrageenan administration and re-assessed 4 h later. Compound 2 or vehicle was administered (10 and 30 mg/kg, p.o.) 3 hrs after carrageenan (curative) and behavior assessed 1 hr later. […] Indomethacin (positive control, 30 mg/kg p.o.) was administered prior to carrageenan and behavior assessed 4 hrs post-carrageenan. […] After induction of anesthesia, the injection site was prepared in a sterile manner and 50 μl of a 2% Jamba-carrageenan was injected. After injection, animals were weighed and allowed to recover before being returned to their home cages. Statistical significance was determined on untransformed data using a two-way analysis of variance (Graphpad Prism, NC). Significant main effects were analyzed further by subsequent Bonferronni post-hoc test. The level of significance was set at p<0.05. Data are shown as mean±S.E.M. (with an asterisk to denote significance as compared to vehicle treated controls).

[5] = Oral pharmacokinetics (Tmax) in rats; conditions: rat, in vivo, given orally

Compound: CC1(C)SC(Nc2ccccc2O)=N[C@@H]1C(=O)O [Compound 2, (R)-2-(2-hydroxyphenylamino)-thiazoline-5,5-dimethyl-4-carboxylic acid]
- IC50 [1]: 130 nM
- development of hyperalgesia following incisional surgery [2]: inhibits the development of hyperalgesia following incisional surgery
- Paw withdrawal latency ([3]; baseline (prior to FCA)): 16.6 s and 17.55 s and 20.74 s and 20.9 s and 20.6 s and 19.33 s
- Paw withdrawal latency ([3]; day 1, compound 2 25 mg/kg i.v. preemptive, 25 mg/kg): 14.4 s and 156.3 s and 15.1 s (2×) and 15.7 s and 22.7 s
- Paw withdrawal latency ([3]; day 3, compound 2 25 mg/kg i.v. preemptive, 25 mg/kg): 12.5 s and 19.12 s and 19.5 s (2×) and 15.7 s and 17.7 s
- Paw withdrawal latency ([3]; day 4, compound 2 25 mg/kg i.v. preemptive, 25 mg/kg): 14 s and 16.25 s and 16.51 s (2×) and 16.6 s and 18.2 s
- FCA thermal hyperalgesia (finding in words) ([3]; rat, single dose 25 mg/kg i.v. preemptive, significant 72 hours post-FCA, 25 mg/kg): prevented the development; also recorded: significantly prevented
- Paw volume (FCA induced edema; 24 hrs post, compound 2 10 mg/kg p.o. preemptive, FIG. 20A, 10 mg/kg): 2.7 mL and 2.6 mL and 3.1 mL
- Paw volume (FCA induced edema; 24 hrs post, compound 2 30 mg/kg p.o. preemptive, FIG. 20A, 30 mg/kg): 2.1 mL and 2.9 mL and 3 mL
- Paw volume (FCA induced edema; 48 hrs post, compound 2 10 mg/kg p.o. preemptive, FIG. 20A, 10 mg/kg): 2.6 mL and 2.5 mL and 2.9 mL and 3.2 mL
- Paw volume (FCA induced edema; 48 hrs post, compound 2 30 mg/kg p.o. preemptive, FIG. 20A, 30 mg/kg): 2.5 mL and 2.8 mL and 3.1 mL and 2.7 mL and 2.9 mL
- Paw volume (FCA induced edema; FCA/Compound 2, 10 mg/kg p.o., dosed 24 hours post-FCA, Pre-FCA (baseline), individual animals): 1.7 mL (2×) and 1.6 mL (2×) and 1.8 mL (3×) and 1.5 mL
- Paw volume (FCA induced edema; FCA/Compound 2, 10 mg/kg p.o., 1 hr (D2), individual animals): 2.7 mL (3×) and 2.9 mL and 2.5 mL and 2.8 mL and 2.3 mL and 3.2 mL
- Paw volume (FCA induced edema; FCA/Compound 2, 10 mg/kg p.o., 1 hr, individual animals): 2.9 mL (2×) and 3.1 mL (2×) and 2.7 mL (2×) and 2.8 mL and 3 mL
- Paw volume (FCA induced edema; FCA/Compound 2, 10 mg/kg p.o., 3 hrs (D2), individual animals): 2.7 mL (2×) and 3 mL and 2.6 mL and 2.5 mL and 2.8 mL and 2.4 mL and 3.2 mL
- Paw volume (FCA induced edema; FCA/Compound 2, 10 mg/kg p.o., 3 hrs, individual animals): 2.9 mL (4×) and 3.1 mL and 2.7 mL and 2.4 mL and 3.2 mL
- Paw volume (FCA induced edema; FCA/Compound 2, 10 mg/kg p.o., Pre-Drug (D2), individual animals): 2.7 mL (2×) and 3 mL and 2.6 mL (2×) and 2.8 mL and 2.4 mL and 3.2 mL
- Paw volume (FCA induced edema; FCA/Compound 2, 10 mg/kg p.o., Pre-Drug, individual animals): 3.1 mL (2×) and 2.8 mL (2×) and 2.9 mL and 3 mL and 2.7 mL and 3.4 mL
- Paw volume (FCA induced edema; FCA/Compound 2, 30 mg/kg p.o., dosed 24 hours post-FCA, Pre-FCA (baseline), individual animals): 1.7 mL (4×) and 1.8 mL (2×) and 1.5 mL and 1.9 mL
- Paw volume (FCA induced edema; FCA/Compound 2, 30 mg/kg p.o., 1 hr, individual animals): 2.6 mL
- Paw volume (FCA induced edema; FCA/Compound 2, 30 mg/kg p.o., Pre-Drug, individual animals): 2.8 mL (2×) and 3 mL (2×) and 2.9 mL and 3.2 mL and 2.6 mL and 3.4 mL
- Paw volume (FCA induced edema; Pre-FCA, compound 2 10 mg/kg p.o. preemptive group, individual rats, FIG. 20A, 10 mg/kg): 1.7 mL (2×) and 1.6 mL and 1.8 mL (2×) and 1.9 mL
- Paw volume (FCA induced edema; Pre-FCA, compound 2 30 mg/kg p.o. preemptive group, individual rats, FIG. 20A, 30 mg/kg): 1.6 mL and 1.7 mL (2×) and 1.9 mL and 1.8 mL (2×)
- FCA-induced edema (finding in words) (FCA induced edema; rat, 10 and 30 mg/kg p.o., preemptive and curative (24 hours post-FCA)): did not have a statistically significant effect; also recorded: did not affect edema
- Paw withdrawal latency ([4]; compound 2 10 mg/kg group, 10 mg/kg): 19.8 s and 15.34 s and 22.07 s and 17.39 s and 31.03 s and 14.07 s
- Paw withdrawal latency ([4]; compound 2 30 mg/kg group, 30 mg/kg): 23.87 s and 12.41 s and 16.08 s and 28.86 s and 18.1 s and 22.77 s and 17.58 s
- carrageenan-induced thermal hyperalgesia, curative (finding in words) ([4]; rat, 10 and 30 mg/kg p.o. 3 hours post-carrageenan): without significantly reversing thermal hyperalgesia; also recorded: did not significantly reverse thermal hyperalgesia
- Tmax [5]: 1 h
